Laboratory results as given in patent publication US20170281573A1, “MEDICINAL COMPOSITION FOR ENHANCED DELIVERY OF TRITERPENES” (PHARCON INC., priority 2016, published 2017).
Where a name gives a salt, the structure may show the parent alone.

Assay: Water solubility
Type: physicochemical

Compound | water solubility
C[C@H]1[C@H](C)CC[C@]2(C(=O)O)CC[C@]3(C)C(=CC[C@@H]4[C@@]5(C)C[C@@H](O)[C@H](O)C(C)(C)[C@@H]5CC[C@]43C)[C@H]12 [Corosolic acid] | below 1 mcg/ml
C[C@H]1[C@H](C)CC[C@]2(C(=O)O)CC[C@]3(C)C(=CC[C@@H]4[C@@]5(C)C[C@@H](O)[C@H](O)C(C)(C)[C@@H]5CC[C@]43C)[C@H]12 [sodium salt of this acid] | less than 5 mcg/ml
